These are literature values, as cited in article PMC10146264, “Safety, Pharmacokinetic and Pharmacodynamic Evaluation of Teverelix for the Treatment of Hormone-Sensitive Advanced Prostate Cancer: Phase 2 Loading-Dose-Finding Studies” (Medicina, 2023).

One data set relates to patients. The text has this: In the United States, cardiovascular disease is the main cause of death for prostate cancer patients, and patients with prostate cancer have a higher risk of death from non-cancer causes than the general population. ADT is associated with a number of cardiometabolic side effects including decreased insulin sensitivity, changes in lipid profile, and an increased risk of thromboembolic and cerebrovascular events. The risk seems to be highest in elderly patients who have had recent cardiovascular events before starting ADT [27]. According to a Scientific Statement issued by the Am ...

In data set [1] the test system is patients with prostate cancer. To be noted: in vivo.

As for `CONC(=O)Nc1ccc(-c2sc3c(c2CN(C)C)c(=O)n(-c2ccc(OC)nn2)c(=O)n3Cc2c(F)cccc2F)cc1` [relugolix], the “Major cardiovascular events, patients” value in the data set on patients (phase 3 randomized trial, within the first 12 months of treatment) is reported as 2.9%. Besides, the “Major cardiovascular events, HR [95% CI] GnRH antagonist vs GnRH agonist” value with patients (phase 3 trial relugolix vs leuprolide, first 12 months of treatment) is 0.46.
Take Degarelix: the “Incidence of injection-site reactions” value in data set [1] is given as ~ 40%.
